Earlier results in patent US6455580B1, “Method and composition for antiviral therapy” (F&S Group, Inc., priority 1994, dated 2002).

Experiments:
[1] = not given; remark: listed apart in the source
[2] = animal studies; oleuropein itself or as component of plant tissue extracts

Compound | antiviral activity in vivo | antiviral properties in vitro [1] | hypoglycemic and cardiovascular effects [2]
COC(=O)C1=CO[C@@H](C)[C@@H](C=O)C1CC(=O)O (single isomer, unassigned; (-)) [(−)-elenolic acid] | little, if any, activity in vivo | antiviral properties in vitro | –
C/C=C1/[C@H](O[C@@H]2O[C@H](CO)[C@@H](O)[C@H](O)[C@H]2O)OC=C(C(=O)OC)[C@H]1CC(=O)OCCc1ccc(O)c(O)c1 [oleuropein] | – | – | exhibit both hypoglycemic and cardiovascular effects
